Experiments:
[1] = tested on: DNA methylation in HCT-116 cells; assay: DNA methylation analysis (Imprint methylated DNA quantification kit); format: cell-based, human; conditions: HCT-116, 1 µM
Description: Human colon adenocarcinoma cells HCT-116 were chosen as the model cellular system suitable for DNA methylation analysis because: (i) this human colorectal cancer cell line has been used as a prototypic model for analyses of the genetic basis of cancer, and the role of epigenetic changes in tumorigenesis; (ii) they have a propensity to both global DNA hypomethylation and to silence genes through promoter focal hypermethylation, [21]. HCT-116 cells were treated with the compounds at the concentrations indicated in Fig. 4A for 24 or 72 h and DNA was isolated for the complete methylation analysis as described in the experimental section. Decitabine (5-aza-2′-deoxycytidine), a hypomethylating agent which hypomethylates DNA by inhibiting DNMT, was used in these experiments as a […]. The IC50 values found for this agent in HCT-116 cells (the drug-treatment period was 72 h) was (7.5 ± 0.3) µM (Table 1).
Figure 4 Analysis of DNA methylation. (A) DNA was isolated from HCT-116 cells after the exposure to the agents at the concentrations indicated in the graph for 24 or 72 h. The levels of DNA methylation in the control was taken as 100%. The bars represent mean values from three independent experiments each performed in octuplicate. The error bars are the SDs. (B) DNMT activity in colon carcinoma cells HCT-116 treated for 24 h with the compounds tested in the present work. The DNMT activity in the control, untreated cells was taken as 100%. Error bars are the SDs and the stars at the top of bars denote a significant difference from the control with (*p < 0.05; **p < […]), calculated using […] student’s t-test. The bars represent mean values from three independent experiments, each performed in quadruplicate.
Human colon carcinoma cells (HCT-116) were seeded at the density 1.5 × 10^6 cells/dish. […] The DNA content in each sample was determined by UV spectrophotometry. DNA (200 ng) from the samples was loaded to the Imprint methylated DNA quantification kit (Sigma-Aldrich, USA). The level of methylated DNA was proportional to the absorbance measured at 450 nm.

[2] = tested on: HCT-116 human colorectal carcinoma cells; assay: MTT cytotoxicity, 72 h; format: cell-based; conditions: MTT, 72 h, platinum complexes and decitabine
Description: (§1) Cytotoxic activity of the compounds tested in the present work was screened on the panel of malignant and nonmalignant cell lines using the colorimetric MTT assay and 72 h of drug incubation period.
(§2) Cell death was evaluated using a system based on the tetrazolium compound MTT [3-(4,5-dimethyl-2-thiazolyl)-2,5-diphenyl-2H-tetrazolium bromide]. The cells were seeded in 96-well tissue culture plates at a density of 10^4 A2780cisR, LNCaP, HSF cells/well, 3 × 10^3 CHO-K1 or 4 × 10^3 MCF7, HCT-116 and MRC5 pd30 cells/well in 100 μL of medium. After overnight incubation (16 h), the cells were treated with the compounds in a final volume of 200 μL/well. After additional 72 h, 10 μL of a freshly diluted MTT solution (2.5 mg mL^−1) was added to each well, and the plate was incubated at 37 °C in a humidified 5% CO2 atmosphere for 4 h. At the end of the incubation period, the medium was removed, and the formazan product was dissolved in 100 μL of DMSO. The cell viability was evaluated by measurement of the absorbance at 570 nm, using an Absorbance Reader SUNRISE TECAN SCHOELLER. IC50 values were calculated from curves constructed by plotting cell survival (%) versus drug concentration (μM). All experiments were made in triplicate. The reading values were converted to the percentage of control (% cell survival). Cytotoxic effects were expressed as IC50.

[3] = tested on: Lewis lung carcinoma (LLC); assay: In vivo antitumor activity in Lewis lung carcinoma; conditions: LLC in C57BL mice; for Average tumor weight (mean ± SD): 20 mg kg^−1 daily orally day 7–14, day 15; for Inhibition of tumor growth: 20 mg kg^−1 daily orally day 7–14, day 15, referred to control animals
Description: Xenograft LLC tumors were grown in C57BL mice that were subsequently treated with […] of either Pt(IV) complex. Pt(IV) prodrugs were administered by oral gavage by taking advantage of their excellent stability, enabling in vivo oral formulation making platinum therapy safer lessening side effects and partially overcoming resistance to platinum(II) drugs, [35]. The schedule of Pt(IV) prodrug administration in vivo was initially determined by assessing the total dose that could be injected without undue toxicity in nontumor-bearing C57BL mice. From day 7 after tumor inoculation, when tumors became visible, tumor-bearing mice received daily doses of the Pt(IV) derivatives (20 mg kg^−1, by oral gavage).
The LLC cell line was purchased from ECACC, United Kingdom. The LLC cell line was maintained in DMEM (Euroclone) supplemented with 10% heat-inactivated fetal bovine serum (FBS; Euroclone), 10 mM L-glutamine, 100 U mL^−1 penicillin, and 100 μg mL^−1 streptomycin in a 5% CO2 air incubator at 37 °C. The LLC was implanted intramuscularly (im) as a 2 × 10^6 cell inoculum into the right hind leg of 8-week old male and female C57BL mice (24 ± 3 g body weight). […] At day 15, animals were sacrificed, the legs were amputated at the proximal end of the femur, and the inhibition of tumor growth was determined according to the difference in weight of the tumor-bearing leg, and the healthy leg of the animals expressed as a percentage referred to the control animals. Body weight was measured every two days and was taken as a parameter for systemic toxicity. All the values are the means ± SD of not less than three measurements.

[4] = design: method as in PMID 25888926; conditions: valproato complexes; cited from earlier work
[5] = tested on: HCT-116 cells; assay: Cellular platinum accumulation/distribution by ICP-MS; format: cell-based, human; conditions: HCT-116, 24 h exposure, 0.35 µM
Description: (§3) Cellular concentrations of platinum were determined by inductively coupled plasma mass spectrometry (ICP-MS) after 24 h of exposure to the complexes at the concentration of 0.35 µM.
(§4) Cellular uptake studies were also carried out to measure the accumulation of platinum species in cytosol and nucleus. […] The platinum levels in each pool were measured by ICP-MS. The extent of accumulation of both OA conjugated Pt(IV) prodrugs into the cytosol and nucleus fractions was markedly higher than that of cisplatin or Pt(IV)diAc.
(§5) The cells were seeded in 150 cm^2 culture flasks at a density 1 × 10^7 cells/flask (67 000 cells/cm^2). After 48-h incubation, the cells were treated with the compounds (0.35 μM) for 24 h. The attached cells were washed twice with PBS (4 °C). Seventy-five percent of cells were used for analysis of platinum bound to DNA, remaining 25% were used for estimations of cellular accumulation of platinum. Cell pellets were digested by a high-pressure microwave digestion system (MARS5, CEM) with HCl to give a fully homogenized solution, and final platinum content was determined by ICP-MS. The analysis with the aid of ICP-MS was performed using Agilent 7500 (Agilent, Japan) or Thermo Optek X Series.
(§6) A2780 cells were seeded in 100 mm tissue culture dishes (3 × 10^6 cells) and grown for 48 h to 80–90% confluence. Cells were harvested after 24 h of treatment. Concretely, the dishes were washed two times with ice-cold PBS and the cells scraped into tubes and centrifuged for 10 min at 0 °C (200 g). The pellets were resuspended in the lysis buffer [Tris·HCl (10 mM, pH 8.0), KCl (60 mM), EDTA (1.2 mM), DTT (1 mM), phenylmethanesulfonyl fluoride (PMSF, 0.1 mM), NP-40 (0.04%)] for 10 min on ice and centrifuged for 4 min at 0 °C (800 g). Cytosolic fraction was separated for platinum ICP-MS analysis, and protein concentration was determined by Bradford assay. The pellets were rinsed with the above lysis buffer without PMSF and NP-40 and centrifuged for another 4 min at 0 °C (300 g). The pellets were resuspended in 50 µL nuclear extraction buffer [Tris·HCl (20 mM, pH 8.0), NaCl (420 mM), MgCl2 (0.7 mM), EDTA (0.25 mM), glycerol (25%)] and incubated for 30 min at 4 °C, continuously mixed on end-over-end roller, and then centrifuged for 15 min at 0 °C (13000 g). Protein concentration in nuclear extracts was determined by the Bradford assay, and stored at −80 °C until analysis.

[6] = tested on: A2780 cells; assay: as above; format: cell-based, human; conditions: 0.35 µM
Description: as §3, §4, §5, §6

[7] = tested on: PNT1a; assay: MTT cytotoxicity, 72 h; format: cell-based; conditions: platinum complexes
[8] = tested on: DNA from A2780 cells; assay: Platinum content on DNA isolated from treated cells (ICP-MS); format: cell-based, human; conditions: A2780, 24 h, 0.35 µM
Description: (§7) As for antitumor cisplatin and its direct derivatives, DNA is believed to be the target also for Pt(IV) prodrugs examined in the present work.
(§8) The cells were seeded in 150 cm^2 culture flasks at a density 1 × 10^7 cells/flask (67 000 cells/cm^2). After 48-h incubation, the cells were treated with the compounds (0.35 μM) for 24 h. The attached cells were washed twice with PBS (4 °C). As mentioned in the preceding paragraph, 75% of cells were used for analysis of platinum bound to DNA, remaining 25% were used for estimations of cellular accumulation of platinum. Cells were then lysed in DNAzol (DNAzol® genomic DNA isolation reagent, MRC) supplemented with RNase A (100 μg mL^−1). The genomic DNA was precipitated from the lysate with ethanol, dried and resuspended in water. The DNA content in each sample was determined by UV spectrophotometry. The DNA samples were digested in the presence of hydrochloric acid (11 M) using high-pressure microwave mineralization system (MARS5, CEM). The platinum content was determined by ICP-MS. Experiments were performed in triplicate and the values are the means ± SD.

[9] = tested on: DNA from HCT-116 cells; assay: as above; format: cell-based, human; conditions: HCT-116, 24 h, 0.35 µM
Description: as §7, §8

[10] = tested on: HCT-116 cells; assay: Cellular platinum accumulation/distribution by ICP-MS; format: cell-based, human; conditions: HCT-116, 24 h, 0.35 µM
[11] = tested on: A2780 human ovarian carcinoma cells; assay: MTT cytotoxicity, 72 h; format: cell-based; conditions: MTT, 72 h, platinum complexes
[12] = tested on: CHO-K1 Chinese hamster ovary cells; assay: MTT cytotoxicity, 72 h; format: cell-based; conditions: platinum complexes
Description: as §1, §2

[13] = tested on: HSF human primary skin fibroblasts; assay: MTT cytotoxicity, 72 h; format: cell-based; conditions: platinum complexes
Description: as §1, §2

[14] = tested on: LNCaP human prostate adenocarcinoma cells; assay: MTT cytotoxicity, 72 h; format: cell-based; conditions: platinum complexes
Description: as §1, §2

[15] = tested on: MRC-5 (PD30) human fetal lung fibroblasts; assay: MTT cytotoxicity, 72 h; format: cell-based; conditions: platinum complexes
Description: as §1, §2

[16] = tested on: MCF-7 human breast cancer cells; assay: MTT cytotoxicity, 72 h; format: cell-based; conditions: platinum complexes
Description: as §1, §2

[17] = tested on: A2780cisR human ovarian carcinoma cells; assay: MTT cytotoxicity, 72 h; format: cell-based
Description: as §1, §2

[18] = rough estimate from Tables 2 and 3

SMILES: Nc1ncn([C@H]2C[C@H](O)[C@@H](CO)O2)c(=O)n1 [Decitabine, 5-aza-2′-deoxycytidine, reference compound]
- Change of DNA methylation [1]: considerably lowered level of DNA methylation
- IC50 ([2]; Homo sapiens, HCT-116): 7500 ± 300 nM

SMILES: CCCC(=O)[O][Pt]([NH2])([NH2])([Cl])([Cl])[O]C(=O)CCC [Pt(IV)diBA, cis, cis, trans-[Pt(IV)(NH3)2Cl2(BA)2]]
- Average tumor weight (mean ± SD) [3]: 0.109 ± 0.05 g
- Inhibition of tumor growth [3]: 80%

SMILES: CCCC(CCC)C(=O)[O][Pt]([NH2])([NH2])([Cl])([Cl])[O]C(C)=O [Pt(IV)AcVPA, reference compound]
- logP [4]: 0.17

SMILES: CCCCCCCC(=O)[O][Pt]([NH2])([NH2])([Cl])([Cl])[O]C(C)=O [Pt(IV)AcOA, cis, cis, trans-[Pt(IV)(NH3)2Cl2AcOA]]
- Total cellular platinum accumulation [5]: 6.0 ± 0.9 ng Pt/10^6 cells
- Platinum in cytosol ([6]; A2780, 24 h): 28 ± 4 pg Pt/µg protein
- Platinum in nucleus ([6]; A2780, 24 h): 27 ± 4 pg Pt/µg protein
- Total cellular platinum accumulation ([6]; A2780, 24 h exposure): 4.0 ± 0.9 ng Pt/10^6 cells
- IC50 [7]: 150 ± 3 nM
- Platinum content on DNA [8]: 8.0 ± 1.4 pg Pt/µg DNA
- Platinum on DNA, % from the total intracellular Pt amount [8, 18]: 5.0%
- Platinum content on DNA [9]: 19.8 ± 3.6 pg Pt/µg DNA
- Platinum on DNA, % from the total intracellular Pt amount [9, 18]: 4.8%
- Platinum in cytosol [10]: 48 ± 2 pg Pt/µg protein
- Platinum in nucleus [10]: 55 ± 7 pg Pt/µg protein
- IC50 [11]: 350 ± 50 nM
- IC50 [12]: 1100 ± 200 nM
- IC50 [13]: 957 ± 19 nM
- IC50 [2]: 930 ± 20 nM
- IC50 [14]: 270 ± 100 nM
- IC50 [15]: 409 ± 215 nM
- IC50 [16]: 500 ± 40 nM
- RF, resistance factor ([17]; IC50 (resistant, A2780cisR)/IC50 (sensitive, A2780)): 1.1
- IC50 ([17]; MTT, 72 h, platinum complexes): 370 ± 60 nM

SMILES: CCCCCC(=O)[O][Pt]([NH2])([NH2])([Cl])([Cl])[O]C(=O)CCCCC [Pt(IV)diHA, cis, cis, trans-[Pt(IV)(NH3)2Cl2(HA)2]]
- Average tumor weight (mean ± SD) [3]: 0.088 ± 0.06 g
- Inhibition of tumor growth [3]: 84%
